Measurements published in patent US11053196B2, “Substituted indoline derivatives as dengue viral replication inhibitors” (JANSSEN PHARMACEUTICALS, INC., priority 2017, dated 2021).

Columns and labels:
in vitro = details: African green monkey
DENV-2 16681 strain = test: DENV-2 antiviral assay (eGFP-labeled virus in Vero cells); type: cell-based, Dengue virus; details: DENV-2 16681 eGFP, MOI 0.5, 3 days
Procedure: The antiviral activity of all the compounds of the invention was tested against the DENV-2 16681 strain which was labeled with enhanced green fluorescent protein (eGPF). The culture medium consists of minimal essential medium supplemented with 2% of heat-inactivated fetal calf serum, 0.04% gentamycin (50 mg/mL) and 2 mM of L-glutamine. Vero cells, obtained from ECACC, were suspended in culture medium and 25 μL was added to 384-well plates (2500 cells/well), which already contain the antiviral compounds. Typically, these plates contain a 5-fold serial dilution of 9 dilution steps of the test compound at 200 times the final concentration in 100% DMSO (200 nL). […] Finally, each plate contains wells which are assigned as virus controls (containing cells and virus in the absence of compound), cell controls (containing cells in the absence of virus and compound) and medium controls (containing medium in the absence of cells, virus and compounds). To the wells assigned as medium control, 25 μL of culture medium was added instead of Vero cells. Once the cells are added to the plates, the plates were incubated for 30 minutes at room temperature to allow the cells to distribute evenly within the wells. Next, the plates were incubated in a fully humidified incubator (37° C., 5% CO2) until the next day. Then, DENV-2 strain 16681, labeled with eGFP, was added at a multiplicity of infection (MOI) of 0.5.
Therefore, 15 μL of virus suspension was added to all the wells containing test compound and to the wells assigned as virus control. In parallel, 15 μL of culture medium was added to the medium and cell controls. Next, the plates were incubated for 3 days in a fully humidified incubator (37° C., 5% CO2). At the day of the read out, the eGFP fluorescence was measured using an automated fluorescence microscope at 488 nm (blue laser). Using an in-house LIMS system, inhibition dose response curves for each compound were calculated and the half maximal effective concentration (EC50) was determined. Therefore, the percent inhibition (I) for every test concentration is calculated using the following formula: I=100*(ST−SCC)/(SVC−SCC); ST, SCC and SVC are the amount of eGFP signal in the test compound, cell control and virus control wells, respectively. The EC50 represents the concentration of a compound at which the virus replication is inhibited with 50%, as measured by a 50% reduction of the eGFP fluorescent intensity compared to the virus control. The EC50 is calculated using linear interpolation (Table 1).

[1] = Dengue virus, DENV2, Vero, 72 h

| Compound | CC50 (in vitro) | EC50 (DENV-2 16681 strain; [1]) | EC50 (DENV-2 16681 strain) |
| --- | --- | --- | --- |
| COc1cc(NC(C(=O)N2CCc3cc(F)c(C(F)(F)F)cc32)c2ccc(Cl)cc2)cc(OCCCC(=O)O)c1 (racemic) [Compound 3, 4-(3-((1-(4-chlorophenyl)-2-(5-fluoro-6-(trifluoromethyl)indolin-1-yl)-2-oxoethyl)amino)-5-methoxyphenoxy)butanoic acid] | 13 µM | 0.00056 µM |  |
| COc1cc(NC(C(=O)N2CCc3sc(C(F)(F)F)cc32)c2ccc(Cl)cc2)cc(OCCCC(=O)O)c1 (racemic) [Compound 10, 4-(3-((1-(4-chlorophenyl)-2-oxo-2-(2-(trifluoromethyl)-5,6-dihydro-4H-thieno[3,2-b]pyrrol-4-yl)ethyl)amino)-5-methoxyphenoxy)butanoic acid] | 19 µM | 0.00052 µM |  |
| COc1cc(NC(C(=O)N2CCc3ccc(SC(F)(F)F)cc32)c2ccc(Cl)cc2)cc(OCCCC(=O)O)c1 (racemic) [Compound 11, 4-(3-((1-(4-chlorophenyl)-2-oxo-2-(6-((trifluoromethyl)thio)indolin-1-yl)ethyl)amino)-5-methoxyphenoxy)butanoic acid] | 13 µM | 0.00028 µM |  |
| COc1cc(NC(C(=O)N2CCc3ccc(OC(F)(F)F)cc32)c2ccc(F)cc2OC)cc(OCCCC(=O)O)c1 (racemic) [Compound 6, 4-(3-((1-(4-fluoro-2-methoxyphenyl)-2-oxo-2-(6-(trifluoromethoxy)indolin-1-yl)ethyl)amino)-5-methoxyphenoxy)butanoic acid] | 12 µM | 0.00063 µM |  |
| COc1cc(NC(C(=O)N2CCc3nc(OC)c(C(F)(F)F)cc32)c2ccc(Cl)cc2)cc(OCCCC(=O)O)c1 (racemic) [Compound 9, 4-(3-((1-(4-chlorophenyl)-2-(5-methoxy-6-(trifluoromethyl)-2,3-dihydro-1H-pyrrolo[3,2-b]pyridin-1-yl)-2-oxoethyl)amino)-5-methoxyphenoxy)butanoic acid] | 12 µM | 0.00099 µM |  |
| COc1cc(NC(C(=O)N2CCc3ccc(OC(F)(F)F)cc32)c2ccc(Cl)cc2OCCO)cc(OCCCC(=O)O)c1 (racemic) [Compound 8, 4-(3-((1-(4-chloro-2-(2-hydroxyethoxy)phenyl)-2-oxo-2-(6-(trifluoromethoxy)indolin-1-yl)ethyl)amino)-5-methoxyphenoxy)butanoic acid] | 13 µM | 0.00015 µM |  |
| COc1cc(NC(C(=O)N2CCc3ccc(S(F)(F)(F)(F)F)cc32)c2ccc(Cl)cc2)cc(OCCCC(=O)O)c1 (racemic) [Compound 1, 4-(3-((1-(4-chlorophenyl)-2-oxo-2-(6-(pentafluoro-λ^6-sulfanyl)indolin-1-yl)ethyl)amino)-5-methoxyphenoxy)butanoic acid] | 13 µM | 0.00064 µM |  |
| COc1cc(NC(C(=O)N2CCc3cc(F)c(OC(F)(F)F)cc32)c2ccc(Cl)cc2)cc(OCCCC(=O)O)c1 (single isomer, unassigned) [Compound 5A, 4-(3-((1-(4-chlorophenyl)-2-(5-fluoro-6-(trifluoromethoxy)indolin-1-yl)-2-oxoethyl)amino)-5-methoxyphenoxy)butanoic acid] | 10 µM |  | 0.0023 µM |
| COc1cc(NC(C(=O)N2CCc3cc(F)c(OC(F)(F)F)cc32)c2ccc(Cl)cc2)cc(OCCCC(=O)O)c1 (racemic) [Compound 5, 4-(3-((1-(4-chlorophenyl)-2-(5-fluoro-6-(trifluoromethoxy)indolin-1-yl)-2-oxoethyl)amino)-5-methoxyphenoxy)butanoic acid] | 10 µM | 0.00011 µM |  |
| COc1cc(NC(C(=O)N2CCc3ccc(OC(F)(F)F)cc32)c2ccc(F)cc2OC)cc(OCCCC(=O)O)c1 (single isomer, unassigned) [Compound 6A, 4-(3-((1-(4-fluoro-2-methoxyphenyl)-2-oxo-2-(6-(trifluoromethoxy)indolin-1-yl)ethyl)amino)-5-methoxyphenoxy)butanoic acid] | 11 µM |  | 0.25 µM |
| COc1cc(NC(C(=O)N2CCc3c(C)cc(OC(F)(F)F)cc32)c2ccc(Cl)cc2)cc(OCCCC(=O)O)c1 (racemic) [Compound 4, 4-(3-((1-(4-chlorophenyl)-2-(4-methyl-6-(trifluoromethoxy)indolin-1-yl)-2-oxoethyl)amino)-5-methoxyphenoxy)butanoic acid] | 12 µM | 0.00011 µM |  |
| COc1cc(NC(C(=O)N2CCc3c(C)cc(C(F)(F)F)cc32)c2ccc(Cl)cc2)cc(OCCCC(=O)O)c1 (single isomer, unassigned) [Compound 2A, 4-(3-((1-(4-chlorophenyl)-2-(4-methyl-6-(trifluoromethyl)indolin-1-yl)-2-oxoethyl)amino)-5-methoxyphenoxy)butanoic acid] | 12 µM |  | 0.015 µM |
| COc1cc(NC(C(=O)N2CCc3c(C)cc(C(F)(F)F)cc32)c2ccc(Cl)cc2)cc(OCCCC(=O)O)c1 (racemic) [Compound 2, 4-(3-((1-(4-chlorophenyl)-2-(4-methyl-6-(trifluoromethyl)indolin-1-yl)-2-oxoethyl)amino)-5-methoxyphenoxy)butanoic acid] | 12 µM | 0.00038 µM |  |
| COc1cc(NC(C(=O)N2CCc3ccc(S(F)(F)(F)(F)F)cc32)c2ccc(Cl)cc2)cc(OCCCC(=O)O)c1 (single isomer, unassigned) [Compound 1A, 4-(3-((1-(4-chlorophenyl)-2-oxo-2-(6-(pentafluoro-λ^6-sulfanyl)indolin-1-yl)ethyl)amino)-5-methoxyphenoxy)butanoic acid] | 12 µM |  | 0.0013 µM |
